# Key:
# [1] = test system: accelerated phase (AP) chronic myeloid leukemia (CML); test: Phase I dose escalation and dose expansion clinical trial: efficacy in CML-AP subjects; format: in vivo, humans
# Text: This study is a single-arm, open-label, dose-escalation and dose-expansion Phase I clinical trial.
# The dose-escalation phase of this trial consists of about 8 dose groups, with oral administration under fasting conditions. Subjects in all dose groups will receive a single dose on Day 1 (D1), followed by pharmacokinetic (PK) and tolerability observations. […] After entering the multiple-dose period, subjects in the first dose group will initially receive twice-daily (BID) dosing (if PK data from the single-dose period are available, the dosing frequency during the multiple-dose period may be adjusted based on the PK data). The dosing frequency for subjects in subsequent dose groups after entering the multiple-dose period will be determined based on available PK and tolerability data. Throughout the trial, dosing frequency for all subjects may be adjusted based on continuously updated safety and PK data.
# (§1) A continuous reassessment method (CRM) based on the principle of the escalation with overdose control (EWOC) design will be used to recommend the next specific dose for each dose escalation, thereby completing dose escalation and determining the maximum tolerated dose (MTD). If both the investigator and sponsor believe that higher dose groups may offer better efficacy and manageable safety, the EWOC-based CRM method may be used to explore higher doses. All enrolled subjects will receive long-term treatment with the test drug and undergo evaluations for safety, tolerability, and preliminary efficacy.
# After obtaining certain research data from the dose-escalation phase, the investigator may comprehensively consider safety, efficacy, and other information to decide whether to enroll additional subjects at the MTD and/or lower dose levels to determine the recommended Phase II dose (RP2D). Two to four suitable dosing regimens will be selected for expansion in the target population (including subjects enrolled at the target dose levels during the escalation phase).
# A total of 8 dose groups were established: 10 mg bid, 20 mg bid, 40 mg bid, 80 mg bid, 40 mg qd, 80 mg qd, 160 mg qd, and 240 mg qd.
# The dose expansion phase was conducted in the following 3 cohorts: • Cohort 1: Subjects with chronic phase (CP) chronic myeloid leukemia (CML) who had previously received at least ≥2 different TKIs and were T315I-negative. A total of 3 dose groups were established: 40 mg qd, 80 mg qd, and 240 mg qd; • Cohort 2: Subjects with chronic phase (CP) chronic myeloid leukemia (CML) who have previously received ≥1 TKI and were T315I-positive. A total of 2 dose groups were established: 40 mg qd and 240 mg qd; • Cohort 3: Subjects with accelerated phase (AP) chronic myeloid leukemia (CML) who have previously received ≥1 TKI, regardless of T315I positivity. A total of 1 dose group was established: 240 mg qd.
# [2] = Phase I clinical trial: safety and tolerability; format: in vivo
# Text: To explore the safety and tolerability of multiple doses of Compound A in humans, and to determine the maximum tolerated dose (MTD) and the recommended Phase II dose (RP2D).
# This study is a single-arm, open-label, dose-escalation and dose-expansion Phase I clinical trial. The trial plans to enroll patients with chronic myeloid leukemia (CML) who have developed resistance or intolerance after prior treatment with BCR-ABL1 tyrosine kinase inhibitor(s) (TKIs).
# The dose-escalation phase of this trial consists of about 8 dose groups, with oral administration under fasting conditions. Subjects in all dose groups will receive a single dose on Day 1 (D1), followed by pharmacokinetic (PK) and tolerability observations. If no drug-related adverse events of Grade 3 or higher occur during the single-dose period, the subject will enter the multiple-dose period (i.e., the treatment period) after 3-5 days (for the first dose group, the multiple-dose period begins 5 days after the first dose [i.e., starting on Day 6]; for subsequent dose groups, the interval will be determined based on available tolerability and PK data). After entering the multiple-dose period, subjects in the first dose group will initially receive twice-daily (BID) dosing (if PK data from the single-dose period are available, the dosing frequency during the multiple-dose period may be adjusted based on the PK data). The dosing frequency for subjects in subsequent dose groups after entering the multiple-dose period will be determined based on available PK and tolerability data. Throughout the trial, dosing frequency for all subjects may be adjusted based on continuously updated safety and PK data.
# as §1
# [3] = CML-AP subjects previously treated with ponatinib, olverembatinib, asciminib, and/or HS-10382, as of June 2, 2024
# [4] = CML-AP subjects, all doses, 44 evaluable, as of August 24, 2023
# [5] = CML-AP subjects, 42 evaluable, as of June 2, 2024
# [6] = CML-AP subjects, as of August 24, 2023
# [7] = CML-AP subjects, as of June 2, 2024
# [8] = CML-AP, failed or intolerant to third or above generations of TKI therapy
# [9] = CML-AP, failed or intolerant to third or above generations of TKI therapy, 28 evaluable
# [10] = CML-AP, failed or intolerant to third or above generations of TKI therapy, Kaplan-Meier method
# [11] = CML-AP, 10 mg BID, 1 evaluable subject, as of August 24, 2023
# [12] = CML-AP, 20 mg BID, 3 evaluable subjects, as of August 24, 2023
# [13] = CML-AP, 40 mg BID, 4 evaluable subjects, as of August 24, 2023
# [14] = CML-AP, 40 mg QD, 2 evaluable subjects, as of August 24, 2023
# [15] = CML-AP, 40 mg/day Total, 5 evaluable subjects, as of August 24, 2023
# [16] = CML-AP, 80 mg BID, 0 evaluable subjects, as of August 24, 2023
# [17] = CML-AP, 80 mg QD, 4 evaluable subjects, as of August 24, 2023
# [18] = CML-AP, 80 mg/day Total, 8 evaluable subjects, as of August 24, 2023
# [19] = CML-AP, 160 mg QD, 3 evaluable subjects, as of August 24, 2023
# [20] = CML-AP, 160 mg/day Total, 3 evaluable subjects, as of August 24, 2023
# [21] = CML-AP, 240 mg QD, 27 evaluable subjects, as of August 24, 2023
# [22] = CML-AP, Total, all dose groups, 44 evaluable subjects, as of August 24, 2023
# [23] = CML subjects, safety data cutoff June 2, 2023
structure (smiles),measurement,setting,value
"O=C(Nc1ccc(OC(F)(F)Cl)cc1)c1cnc(N2CC[C@@H](F)C2)c(-c2cnccn2)c1 [Compound A, (R)-N-(4-(chlorodifluoromethoxy)phenyl)-6-(3-fluoropyrrolidin-1-yl)-5-(pyrazin-2-yl)nicotinamide]",18-month cumulative incidence rate of CCyR,[1]; [3],17%
same,18-month cumulative incidence rate of MCyR,[1]; [3],23%
same,CCyR,[1]; [4],18.2%
same,MCyR,[1]; [4],34.1%
same,MMR,[1]; [4],4.5%
same,MaHR,"[1]; CML-AP subjects, all doses, 46 evaluable, as of August 24, 2023",84.8%
same,CHR within 3 treatment cycles,[1]; [5],79%
same,MaHR within 3 treatment cycles,[1]; [5],83%
same,median time to MCyR,[1]; [6],"2.76 (0.95, 5.52) months"
same,median time to MMR,[1]; [6],"5.54 (2.79, 8.28) months"
same,18-month cumulative incidence of CCyR,[1]; [7],30%
same,18-month cumulative incidence of MCyR,[1]; [7],35%
same,18-month cumulative incidence of MMR,[1]; [7],14%
same,median EFS,[1]; [8],8.41 months
same,median PFS,[1]; [8],not reached
same,median duration of MaHR response,[1]; [8],not reached
same,median time to achieve CCyR,[1]; [8],"5.59 (4.16, 6.92) months"
same,median time to achieve MCyR,[1]; [8],"2.69 (2.69, 5.55) months"
same,CCyR,[1]; [9],14.3%
same,MCyR,[1]; [9],25.0%
same,MMR,[1]; [9],3.6%
same,MaHR,[1]; [9],78.6%
same,12-month EFS rate,[1]; [10],42.5%
same,12-month PFS rate,[1]; [10],79.9%
same,CCyR,[1]; [11],0 n (%)
same,MCyR,[1]; [11],0 n (%)
same,MMR,[1]; [11],0 n (%)
same,MaHR,[1]; [11],1 (100) n (%)
same,CCyR,[1]; [12],1 (33.3) n (%)
same,MCyR,[1]; [12],1 (33.3) n (%)
same,MMR,[1]; [12],0 n (%)
same,MaHR,[1]; [12],3 (100) n (%)
same,CCyR,[1]; [13],0 n (%)
same,MCyR,[1]; [13],1 (25.0) n (%)
same,MMR,[1]; [13],0 n (%)
same,MaHR,[1]; [13],3 (75.0) n (%)
same,CCyR,[1]; [14],0 n (%)
same,MCyR,[1]; [14],1 (50.0) n (%)
same,MMR,[1]; [14],0 n (%)
same,MaHR,[1]; [14],1 (50.0) n (%)
same,CCyR,[1]; [15],1 (20.0) n (%)
same,MCyR,[1]; [15],2 (40.0) n (%)
same,MMR,[1]; [15],0 n (%)
same,MaHR,[1]; [15],4 (80.0) n (%)
same,CCyR,[1]; [16],0 n (%)
same,MCyR,[1]; [16],0 n (%)
same,MMR,[1]; [16],0 n (%)
same,MaHR,[1]; [16],0 n (%)
same,CCyR,[1]; [17],0 n (%)
same,MCyR,[1]; [17],0 n (%)
same,MMR,[1]; [17],0 n (%)
same,MaHR,[1]; [17],3 (75.0) n (%)
same,CCyR,[1]; [18],0 n (%)
same,MCyR,[1]; [18],1 (12.5) n (%)
same,MMR,[1]; [18],0 n (%)
same,MaHR,[1]; [18],6 (75.0) n (%)
same,CCyR,[1]; [19],0 n (%)
same,MCyR,[1]; [19],1 (33.3) n (%)
same,MMR,[1]; [19],0 n (%)
same,MaHR,[1]; [19],3 (100) n (%)
same,CCyR,[1]; [20],0 n (%)
same,MCyR,[1]; [20],1 (33.3) n (%)
same,MMR,[1]; [20],0 n (%)
same,MaHR,[1]; [20],3 (100) n (%)
same,CCyR,[1]; [21],7 (25.9) n (%)
same,MCyR,[1]; [21],11 (40.7) n (%)
same,MMR,[1]; [21],2 (7.4) n (%)
same,MaHR,"[1]; CML-AP, 240 mg QD, 29 evaluable subjects, as of August 24, 2023",25 (86.2) n (%)
same,CCyR,[1]; [22],8 (18.2) n (%)
same,MCyR,[1]; [22],15 (34.1) n (%)
same,MMR,[1]; [22],2 (4.5) n (%)
same,MaHR,"[1]; CML-AP, Total, all dose groups, 46 evaluable subjects, as of August 24, 2023",39 (84.8) n (%)
same,dose-dependent increase in the frequency of adverse events,"[2]; CML subjects, 10 mg BID to 240 mg QD, safety data cutoff June 2, 2023",no observed dose-dependent increase
same,Grade ≥3 hematological adverse events associated with the test drug,[2]; [23],mostly manageable with treatment interruption
same,non-hematological toxicity compared to ATP-competitive TKIs,[2]; [23],significant improvement in non-hematological toxicity
same,pigmentation or severe arterial occlusive events and venous thromboembolic events,[2]; [23],no reported
same,safety and tolerability profile,[2]; [23],favorable safety and tolerability profile
same,tolerability,"[2]; CML-CP and CML-AP patients, extended follow-up, as of June 2, 2024",good tolerability

# — patent publication EP4803080A1, “METHOD FOR TREATING LEUKEMIA” (Shenzhen TargetRx Co., Ltd., priority 2023, dated 2025)
